pIC50: −log10 of the molar value.
Columns and labels:
[1] = target: T1, Potassium voltage-gated channel subfamily A member 3 (Homo sapiens, UniProt P22001); assay: Inhibition of human Kv1.3 expressed in HEK293 cells assessed as inhibition of tetracyclin induced current at 1 uM at holding potential of -80 mV by patch clamp method relative to control; type: cell-based
[2] = system: HEK293; assay: Cytotoxicity against HEK293 cells assessed as reduction in cell proliferation at 30 uM; type: toxicity, cell-based; conditions: human, hek293, 30 µM
[3] = target: T1, Potassium voltage-gated channel subfamily A member 3; assay: Inhibition of human Kv1.3 expressed in HEK293 cells assessed as inhibition of tetracyclin induced current at 30 uM at holding potential of -80 mV by patch clamp method relative to control; type: cell-based
[4] = target: T1, Potassium voltage-gated channel subfamily A member 3; assay: Inhibition of human Kv1.3 expressed in HEK293 cells assessed as inhibition of tetracyclin induced current at holding potential of -80 mV by patch clamp method; type: cell-based

T1 sequence (P22001 whole entry): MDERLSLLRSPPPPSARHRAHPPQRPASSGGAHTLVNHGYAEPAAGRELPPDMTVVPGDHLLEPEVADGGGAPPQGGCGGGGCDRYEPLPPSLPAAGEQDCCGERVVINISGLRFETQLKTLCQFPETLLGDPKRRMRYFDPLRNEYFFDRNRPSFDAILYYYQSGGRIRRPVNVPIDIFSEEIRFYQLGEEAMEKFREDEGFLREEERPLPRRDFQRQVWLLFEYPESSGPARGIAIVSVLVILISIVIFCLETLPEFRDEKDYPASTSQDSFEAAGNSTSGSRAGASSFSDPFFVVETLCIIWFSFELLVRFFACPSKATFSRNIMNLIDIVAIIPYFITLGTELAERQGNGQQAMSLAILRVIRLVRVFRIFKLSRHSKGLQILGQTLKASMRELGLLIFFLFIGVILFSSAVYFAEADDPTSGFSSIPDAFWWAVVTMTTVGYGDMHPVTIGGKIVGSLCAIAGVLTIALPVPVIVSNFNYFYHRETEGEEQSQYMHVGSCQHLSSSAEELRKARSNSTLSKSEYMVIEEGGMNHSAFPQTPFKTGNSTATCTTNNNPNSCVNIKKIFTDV

Row | Compound | inhibition [1] [%] | inhibition [3] [%] | pIC50 [4] | Activity [2]
1 | CC(=O)O[C@@H]1C[C@@H](O)/C(C)=C/[C@H]2[C@@H](OC(=O)c3ccccc3)[C@@H](C)C[C@]2(OC(C)=O)C(=O)/C(C)=C/[C@H](O)C1(C)C | 7.36 | 84.4 |  | Non-Toxic
2 | CC(=O)O[C@@H]1C[C@@H](OC(C)=O)C(C)(C)[C@@H](O)/C=C(\C)C(=O)[C@@]2(OC(C)=O)C[C@H](C)[C@H](OC(=O)c3ccccc3)[C@@H]2/C=C/1C | 57 | 98.6 | 6.05 | Non-Toxic
3 | CC(=O)O[C@@H]1CC(=O)/C(C)=C/[C@H]2[C@@H](OC(=O)c3ccccc3)[C@@H](C)C[C@]2(O)[C@@H](OC(C)=O)[C@@H](C)/C=C/C1(C)C | 4.72 | 89.4 |  | Non-Toxic
4 | CC(=O)O[C@@H]1C[C@@H](OC(C)=O)C(C)(C)/C=C/[C@H](C)[C@@H](O)[C@@]2(OC(C)=O)C[C@@H](C)[C@H](OC(=O)c3ccccc3)[C@@H]2/C=C/1C | 21.1 | 97.4 |  | Non-Toxic
5 | CC(=O)O[C@]12C[C@H](C)[C@H](OC(=O)c3ccccc3)[C@@H]1/C=C(\C)[C@H](O)CC(=O)C(C)(C)C/C=C(\C)C2=O | 4.96 | 88.7 |  | Non-Toxic
6 | CC(=O)O[C@@H]1C[C@@H](OC(C)=O)C(C)(C)[C@H](O)/C=C(\C)[C@H](OC(C)=O)[C@@]2(OC(C)=O)C[C@H](C)[C@H](OC(=O)c3ccccc3)[C@@H]2/C=C/1C | 50.4 | 93.7 | 6.05 | Non-Toxic
7 | CC(=O)O[C@@H]1C[C@@H](OC(C)=O)C(C)(C)[C@@H](O)[C@H](O)[C@H](C)[C@H](OC(C)=O)[C@@]2(O)C[C@H](C)[C@H](OC(=O)c3ccccc3)[C@@H]2/C=C/1C | 24.3 | 95.7 |  | Non-Toxic
8 | CC(=O)O[C@@H]1C[C@@H](OC(C)=O)C(C)(C)[C@H](O)[C@H]2O[C@@]3(C[C@H](C)[C@H](OC(=O)c4ccccc4)[C@@H]3/C=C/1C)[C@@H](OC(C)=O)[C@H]2C | 21 | 96.2 |  | Non-Toxic
9 | Fc1ccc([C@@H]2CCNC[C@H]2COc2ccc3c(c2)OCO3)cc1 [PAROXETINE] |  | 48.1 | 4.50 | Non-Toxic
10 | CC(=O)O[C@]12C[C@@H](C)[C@H](OC(=O)c3ccccc3)[C@@H]1/C=C(\C)[C@H](O)CC(=O)C(C)(C)[C@@H](O)/C=C(\C)C2=O | 5.67 | 90.7 |  | Non-Toxic
11 | CC(=O)O[C@@H]1C[C@@H](OC(C)=O)C(C)(C)/C=C/[C@H](C)[C@H](OC(C)=O)[C@@]2(O)C[C@H](C)[C@H](OC(=O)c3cccc(O)c3)[C@@H]2/C=C/1C | 6.16 | 74.4 |  | Non-Toxic
12 | CC(=O)O[C@@H]1[C@@H](C)/C=C/C(C)(C)[C@H](OC(C)=O)C[C@@H](OC(C)=O)/C(C)=C/[C@H]2[C@@H](OC(=O)c3ccccc3)[C@@H](C)C[C@]12OC(C)=O | 8.34 | 90 |  | Non-Toxic
13 | CC(=O)O[C@@H]1[C@H](C)[C@@H](C=C(C)C)C(=O)C[C@@H](OC(=O)c2cccnc2)/C(C)=C/[C@H]2[C@@H](OC(=O)c3ccccc3)[C@H](C)C[C@]12OC(C)=O | 30.9 | 98.7 | 5.19 | Non-Toxic
14 | CC(=O)O[C@@H]1C[C@@H](O)/C(C)=C/[C@H]2[C@@H](OC(=O)c3ccccc3)[C@H](C)C[C@]2(OC(C)=O)C(=O)/C(C)=C/[C@H](O)C1(C)C | 6.06 | 85.6 |  | Non-Toxic
15 | CC(=O)O[C@@H]1C[C@@H](OC(C)=O)C(C)(C)/C=C/[C@H](C)[C@H](OC(C)=O)[C@@]2(O)C[C@H](C)[C@H](OC(=O)c3ccccc3)[C@@H]2/C=C/1C [EUPHORNIN] | 8.87 | 88.7 |  | Non-Toxic

Second part, led by results:

Row | inhibition [1] [%] | inhibition [3] [%] | pIC50 [4] | Compound | Activity [2]
16 | 5.94 | 96.9 |  | CC(=O)O[C@@H]1[C@@H](C)/C=C/C(C)(C)C(=O)C[C@@H](OC(C)=O)/C(CO)=C/[C@H]2[C@@H](OC(=O)c3ccccc3)[C@H](C)C[C@]12OC(C)=O | Non-Toxic
17 | 13.4 | 93.9 |  | CC(=O)O[C@]12C[C@@H](C)[C@H](OC(=O)c3ccccc3)[C@@H]1/C=C(\C)[C@H](O)CC(=O)C(C)(C)/C=C/[C@@H](C)[C@H]2O | Non-Toxic
18 | 2.38 | 94.6 |  | CC(=O)O[C@@H]1[C@H](C)/C=C/C(C)(C)C(=O)C[C@@H](O)/C(C)=C/[C@H]2[C@@H](OC(=O)c3ccccc3)[C@H](C)C[C@]12OC(C)=O | Non-Toxic
19 | 24.6 | 85.4 |  | CC(=O)O[C@@H]1CC(=O)C(C)(C)/C=C/[C@@H](C)[C@@H](O)[C@@]2(OC(C)=O)C[C@H](C)[C@H](OC(=O)c3ccccc3)[C@@H]2/C=C/1C | Non-Toxic
20 | 5.38 | 97.5 |  | CC(=O)O[C@@H]1[C@H](C)/C=C/C(C)(C)C(=O)C[C@@H](OC(C)=O)/C(CO)=C/[C@H]2[C@@H](OC(=O)c3ccccc3)[C@H](C)C[C@]12OC(C)=O | Non-Toxic
21 | 10.5 | 95.3 |  | CC(=O)O[C@@H]1[C@H](C)/C=C/C(C)(C)C(=O)C[C@@H](OC(=O)c2cccnc2)/C(C)=C/[C@H]2[C@@H](OC(=O)c3ccccc3)[C@H](C)C[C@]12OC(C)=O | Non-Toxic
